Test system: Canine glioma
Experiment: in vivo tumor inhibition: canine model
Parameters: species or system dog
Method: Canine glioma was implanted surgically into the brains of four outbred dogs (2×10^6 cells). This procedure normally causes death by tumor growth in 14-28 days.
[…] F) by I.P. injection in phosphate buffered saline.
Tumor progress was assessed at weekly intervals by NMR, employing GdDPTA as imaging agent. This method illuminates vascularization at the surface of the tumor, and provides images which correlate well with neuropathological observations.

CC(C)c1nc(-c2ccccc2)n(-c2ccc(F)cc2)c1/C=C/[C@H](O)C[C@H](O)CC(=O)O [TF-002]
tumor status, later studies (10 μg/kg I.P. (data not shown)): free of tumor
small tumor appeared on Day (pre-treated, 10 μg/kg I.P. M, W, F after implantation (FIG. 8)): 12 days

CC(C)c1c(/C=C/C(O)CC(O)CC(=O)O)n(-c2ccc(F)cc2)c2ccccc12 (stereo not drawn) [TF-004]
tumor visible at Day (treatment begun on Day 11 (FIG. 9)): 10 days

Source: patent US5849777A, “Cell differentiation induction with mevalonate and mevalonolactone derivatives” (University of New Mexico, priority 1995, dated 1998)
